1 molecule from patent publication US20100184704A1, “USE OF THE PEPTIDE GLY-ARG-GLY-ASP-ASN-PRO AS A THERAPEUTIC AGENT” (priority 2007, published 2010) can be followed below.

The structures appear in SMILES notation. Where a SMILES comes first, the peptide text is derived from it.

By % inhibition is commonly meant the share of the control response that was lost under treatment. Low values mean a weak effect, high ones a strong effect.

For the test, the system named is drug-resistant Mycobacterium tuberculosis. The following applies: 5 micrograms per ml.

With `N=C(N)NCCC[C@H](NC(=O)CN)C(=O)NCC(=O)N[C@@H](CC(=O)O)C(=O)N[C@@H](CC(N)=O)C(=O)N1CCC[C@H]1C(=O)O` [Gly-Arg-Gly-Asp-Asn-Pro, Gly-Arg-Gly-Asp-Asn-Pro-OH] (H-GRGDNP-OH), the “% inhibition” value was found to be 0.0%.
